Assays:
Assay type in all cases: cell-based
[1] = molecular target: T1, TYK2 Pseudokinase (JH2) (Homo sapiens, UniProt P29597); assay: HEK-Blue IL-23 reporter assay (SEAP) for profiling TYK2 pseudokinase (JH2) inhibition; design: HEK-Blue™ IL-23 and IFNα/β cells with a stably-integrated cytokine receptor and STAT3 or STAT1; endogenous in cells; host or cells: HEK-Blue IL-23 and HEK-Blue IFNα/β cells; details: HEK-Blue IL-23 cells, 10 ng/mL human recombinant IL-23, SEAP reporter; read-out: IL23 (TYK2 inhibitory activity, IC50)
Protocol: (§1) Example B-1: HEK-Blue™ IL-23 and IFNα/β Reporter Assays for Profiling TYK2 Pseudokinase (JH2) Inhibition
(§2) HEK-Blue™ IL-23 and IFNα/β cells with a stably-integrated cytokine receptor and STAT3 or STAT1 express STAT-inducible secreted embryonic alkaline phosphatase (SEAP) reporter gene upon cytokine stimulation. These cells are plated in DMEM (Gibco) containing 10% heat-inactivated FBS (Gibco) and 100 U/mL PenStrep (Gibco) at 37° C. under 5% CO2 conditions for 20-22 hours. The cells are then pretreated with serially diluted test compounds for 60 min prior to stimulation with either 10 ng/mL human recombinant IL-23 (Miltenyl Biotech) or 1 ng/mL human recombinant IFNα (InvivoGen) for 22-24 hours for IL-23 or 16-18 h for IFNα. SEAP induction is measured using the QUANTI Blue™ Solution (InvivoGen) according to the manufacturer's instructions.

[2] = molecular target: T1, TYK2 Pseudokinase (JH2); assay: HEK-Blue IFNα/β reporter assay (SEAP) for profiling TYK2 pseudokinase (JH2) inhibition; details: HEK-Blue IFNα/β cells, 1 ng/mL human recombinant IFNα, read-out: IFNα (TYK2 inhibitory activity, IC50)
Protocol: as §1, §2

[3] = system: HEK-Blue™ IL-2 reporter cells; assay: HEK-Blue IL-2 reporter assay (SEAP) for determining selectivity; details: HEK-Blue IL-2 cells, 4 ng/mL human recombinant IL-2, SEAP reporter
Protocol: Example B-3: HEK-Blue™ IL-2 and IFNγ Reporter Assays for Determining Selectivity
HEK-Blue™ IL-2 and IFNγ reporter cells with a stably-integrated cytokine receptor and STAT5 or STAT1 express STAT-inducible secreted embryonic alkaline phosphatase (SEAP) reporter gene upon cytokine stimulation. These cells were plated in DMEM (Gibco) containing 10% heat-inactivated FBS (Gibco) and 100 U/mL PenStrep (Gibco) at 37° C. under 5% CO2 conditions for 20-22 hours. The cells were then pre-treated with serially diluted test compounds for 60 min prior to stimulation with either 4 ng/mL human recombinant IL-2 (Miltenyl Biotech) or 50 ng/mL human recombinant IFNγ (InvivoGen) for 24 hours. SEAP induction was measured using the QUANTI-Blue™ Solution (InvivoGen) according to the manufacturer's instructions.

T1 sequence (P29597 whole entry): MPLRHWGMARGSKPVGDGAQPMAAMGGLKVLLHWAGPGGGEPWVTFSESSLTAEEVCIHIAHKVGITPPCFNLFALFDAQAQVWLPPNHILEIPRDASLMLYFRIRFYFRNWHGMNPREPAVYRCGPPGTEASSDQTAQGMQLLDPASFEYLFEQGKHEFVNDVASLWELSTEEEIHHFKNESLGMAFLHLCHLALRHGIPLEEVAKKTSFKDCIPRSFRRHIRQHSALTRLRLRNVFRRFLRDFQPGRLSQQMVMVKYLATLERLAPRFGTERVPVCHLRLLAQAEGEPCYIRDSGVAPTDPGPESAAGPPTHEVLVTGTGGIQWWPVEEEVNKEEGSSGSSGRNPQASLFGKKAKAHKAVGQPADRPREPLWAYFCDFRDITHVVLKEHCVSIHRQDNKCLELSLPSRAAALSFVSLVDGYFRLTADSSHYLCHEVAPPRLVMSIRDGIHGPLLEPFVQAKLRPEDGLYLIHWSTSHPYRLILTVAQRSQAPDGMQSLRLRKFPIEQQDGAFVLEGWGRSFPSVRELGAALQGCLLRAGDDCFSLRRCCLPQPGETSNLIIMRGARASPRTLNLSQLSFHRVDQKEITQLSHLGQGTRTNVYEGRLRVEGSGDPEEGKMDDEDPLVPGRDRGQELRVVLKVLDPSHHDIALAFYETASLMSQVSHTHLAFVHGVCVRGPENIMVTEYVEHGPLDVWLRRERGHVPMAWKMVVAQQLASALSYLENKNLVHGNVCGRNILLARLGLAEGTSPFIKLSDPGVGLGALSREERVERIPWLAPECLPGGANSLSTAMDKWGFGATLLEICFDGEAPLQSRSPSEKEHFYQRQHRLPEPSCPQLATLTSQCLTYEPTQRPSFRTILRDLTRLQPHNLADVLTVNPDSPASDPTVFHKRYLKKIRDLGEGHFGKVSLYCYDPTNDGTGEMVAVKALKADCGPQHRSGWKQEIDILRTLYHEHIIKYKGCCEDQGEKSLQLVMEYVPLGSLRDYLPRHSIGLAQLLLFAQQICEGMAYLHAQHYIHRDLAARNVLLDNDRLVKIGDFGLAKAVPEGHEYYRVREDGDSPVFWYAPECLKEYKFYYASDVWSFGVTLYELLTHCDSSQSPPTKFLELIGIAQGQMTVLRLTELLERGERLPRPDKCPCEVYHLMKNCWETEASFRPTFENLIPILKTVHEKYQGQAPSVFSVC

SMILES: CNC(=O)c1nnc(Nc2ccc(F)cn2)cc1Nc1cccc2c1OCc1c-2noc1C [Compound 1, 6-((5-fluoropyridin-2-yl)amino)-N-methyl-4-((3-methyl-4H-chromeno[4,3-c]isoxazol-6-yl)amino)pyridazine-3-carboxamide]
- IC50 [1]: 0.3 to 1 µM
- IC50 [2]: > 1 µM

SMILES: CNC(=O)c1nnc(Nc2ccc(F)cn2)cc1Nc1cccc2c1OCc1nnnn1-2 [Compound 4, 4-((4H-benzo[b]tetrazolo[1,5-d][1,4]oxazin-6-yl)amino)-6-((5-fluoropyridin-2-yl)amino)-N-methylpyridazine-3-carboxamide]
- IC50 [1]: 0.3 to 1 µM
- IC50 [2]: > 1 µM

SMILES: CNC(=O)c1nnc(NC(=O)C2CC2)cc1Nc1cccc2c1OCn1nnnc1-2 [Compound 5, 4-((5H-benzo[e]tetrazolo[1,5-c][1,3]oxazin-7-yl)amino)-6-(cyclopropanecarboxamido)-N-methylpyridazine-3-carboxamide]
- IC50 [1]: 0.3 to 1 µM
- IC50 [2]: > 1 µM

SMILES: CNC(=O)c1nnc(NC(=O)C2CC2)cc1Nc1cccc2c1OCc1nn(C)c(=O)n1-2 [Compound 6, 6-(cyclopropanecarboxamido)-N-methyl-4-((2-methyl-1-oxo-2,4-dihydro-1H-benzo[b][1,2,4]triazolo[4,3-d][1,4]oxazin-6-yl)amino)pyridazine-3-carboxamide]
- IC50 [1]: 0.3 to 1 µM
- IC50 [2]: > 1 µM

SMILES: CNC(=O)c1nnc(Nc2ccc(F)cn2)cc1Nc1cccc2c1OCc1nn(C)c(=O)n1-2 [Compound 7, 6-((5-fluoropyridin-2-yl)amino)-N-methyl-4-((2-methyl-1-oxo-2,4-dihydro-1H-benzo[b][1,2,4]triazolo[4,3-d][1,4]oxazin-6-yl)amino)pyridazine-3-carboxamide]
- IC50 [1]: > 1 µM
- IC50 [2]: > 1 µM

SMILES: [2H]C([2H])([2H])NC(=O)c1cnc(NC(=O)C2CC2)cc1Nc1cncc2c1N(C)Cc1nn(C)c(=O)n1-2 [Compound 13, 6-(cyclopropanecarboxamido)-4-((2,5-dimethyl-1-oxo-1,2,4,5-tetrahydropyrido[4,3-e][1,2,4]triazolo[4,3-a]pyrazin-6-yl)amino)-N-(methyl-d3)nicotinamide]
- IC50 [1]: > 1 µM
- IC50 [2]: > 1 µM

SMILES: [2H]C([2H])([2H])NC(=O)c1nnc(NC(=O)C2COC2)cc1Nc1cccc2c1N(C)Cc1nn(C)c(=O)n1-2 [Compound 19, 4-((2,5-dimethyl-1-oxo-1,2,4,5-tetrahydro-[1,2,4]triazolo[4,3-a]quinoxalin-6-yl)amino)-N-(methyl-d3)-6-(oxetane-3-carboxamido)pyridazine-3-carboxamide]
- IC50 [1]: > 1 µM
- IC50 [2]: 0.3 to 1 µM

SMILES: [2H]C([2H])([2H])NC(=O)c1nnc(NC(=O)C2CC2)cc1Nc1cccc2c1N(C)Cc1nc(C)oc1-2 [Compound 22, 6-(cyclopropanecarboxamido)-4-((2,5-dimethyl-4,5-dihydrooxazolo[4,5-c]quinolin-6-yl)amino)-N-(methyl-d3)pyridazine-3-carboxamide]
- IC50 [3]: 0.3 to 1 µM
- IC50 [1]: < 0.03 µM

SMILES: [2H]C([2H])([2H])NC(=O)c1nnc(NC(=O)C2CC2)cc1Nc1cccc2c1N(C)Cc1sc(C)nc1-2 [Compound 35, 6-(cyclopropanecarboxamido)-4-((2,5-dimethyl-4,5-dihydrothiazolo[5,4-c]quinolin-6-yl)amino)-N-(methyl-d3)pyridazine-3-carboxamide]
- IC50 [3]: > 1 µM
- IC50 [1]: < 0.03 µM
- IC50 [2]: < 0.03 µM

SMILES: [2H]C([2H])([2H])NC(=O)c1nnc(NC(=O)C2CC2)cc1Nc1cccc2c1N(C)C[C@@H]1CCC(=O)N21 [Compound 39, (S)-6-(cyclopropanecarboxamido)-N-(methyl-d3)-4-((5-methyl-1-oxo-1,2,3,3a,4,5-hexahydropyrrolo[1,2-a]quinoxalin-6-yl)amino)pyridazine-3-carboxamide]
- IC50 [1]: 0.03 to 0.3 µM
- IC50 [2]: 0.3 to 1 µM

From patent publication US20240189309A1, “TYK2 INHIBITORS AND USES THEREOF” (Sudo Biosciences Limited, priority 2021, published 2024)
